The results in this text go back to patent publication US10414763B2 (CANCER RESEARCH TECHNOLOGY LIMITED, priority 2014, dated 2019).

The target in the experiment is T1, full-length human PKCι (Homo sapiens, UniProt P41743).
T1 construct: Recombinant, full-length human PKCι expressed in Sf21 insect cells is also commercially available; purchased EMD Millipore; host or cells: Sf21 insect cells (baculovirus)
T1 sequence (P41743 1-596): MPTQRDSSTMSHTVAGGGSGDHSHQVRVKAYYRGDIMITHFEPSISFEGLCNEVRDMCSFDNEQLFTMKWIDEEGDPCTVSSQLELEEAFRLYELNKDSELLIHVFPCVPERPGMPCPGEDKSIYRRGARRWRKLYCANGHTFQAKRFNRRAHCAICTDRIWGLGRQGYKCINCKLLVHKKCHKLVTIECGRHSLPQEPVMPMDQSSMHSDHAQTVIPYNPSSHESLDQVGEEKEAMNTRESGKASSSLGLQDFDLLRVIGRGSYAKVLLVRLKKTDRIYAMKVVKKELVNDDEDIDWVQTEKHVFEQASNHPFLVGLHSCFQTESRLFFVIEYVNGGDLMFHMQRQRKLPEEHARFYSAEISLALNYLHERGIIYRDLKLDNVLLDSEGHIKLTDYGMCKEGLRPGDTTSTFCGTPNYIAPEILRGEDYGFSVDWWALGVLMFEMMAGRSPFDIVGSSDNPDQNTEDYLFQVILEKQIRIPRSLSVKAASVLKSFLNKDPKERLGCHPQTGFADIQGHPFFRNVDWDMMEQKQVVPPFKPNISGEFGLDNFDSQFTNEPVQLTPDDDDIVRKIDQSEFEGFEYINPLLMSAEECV
In words: PKCι IC50 IMAP fluorescence polarisation assay, full-length enzyme, 150 μM ATP. Type of experiment: biochemical. Particulars: read-out: IC50 in IMAP assay against full length PKCi at 150 μM ATP. In a few lines: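 IMAP fluorescence polarisation kinase assay: 15 pM baculovirus-expressed human PKCiota with 100 nM FAM-pseudosubstrate peptide and 150 μM ATP, 1 h at 25 °C. IMAP detection reagent then 2 h at 25 °C before FP measurement. Inhibition referenced to no-compound and no-enzyme controls for IC50 fitting.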
A general note: Fluorescence polarisation rises when a labelled molecule tumbles more slowly, as on binding a larger partner.
With `CC1(C)CNCC[C@@H]1Nc1nc(-c2ccnc3[nH]c(-c4cncc(F)c4)cc23)nc2cncc(C3CC3)c12` [Example 365, {5-Cyclopropyl-2-[2-(5-fluoro-pyridin-3-yl)-1H-pyrrolo[2,3-b]pyridin-4-yl]-pyrido[3,4-d]pyrimidin-4-yl}-((S)-3,3-dimethyl-piperidin-4-yl)-amine], the IC50 (commonly the concentration that inhibits the measured activity by half) was less than 100 nM.

Take `CC1(C)CNCC[C@@H]1Nc1nc(-c2ccnc3[nH]c(C(=O)N4CCC4)cc23)nc2cncc(C3CC3)c12` [Example 366, Azetidin-1-yl-[4-[5-cyclopropyl-4-[[(4S)-3,3-dimethyl-4-piperidyl]amino]pyrido [3,4-d]pyrimidin-2-yl]-1H-pyrrolo[2,3-b]pyridin-2-yl]methanone]: the IC50 is less than 100 nM. Under `CC1(C)CNCC[C@@H]1Nc1nc(-c2ccnc3[nH]c(-c4cccnc4)cc23)nc2cncc(C3CCC3)c12` [Example 367, [5-Cyclobutyl-2-(2-pyridin-3-yl-1H-pyrrolo[2,3-b]pyridin-4-yl)-pyrido[3,4-d]pyrimidin-4-yl]-((S)-3,3-dimethyl-piperidin-4-yl)-amine] stands less than 100 nM; under `COc1ccc(Cl)c(-c2cc3c(-c4nc(N[C@H]5CCNCC5(C)C)c5c(C6CC6)cncc5n4)ccnc3[nH]2)c1` [Example 368, {2-[2-(2-Chloro-5-methoxy-phenyl)-1H-pyrrolo[2,3-b]pyridin-4-yl]-5-cyclopropyl-pyrido[3,4-d]pyrimidin-4-yl}-((S)-3,3-dimethyl-piperidin-4-yl)-amine], less than 100 nM. For the compound `c1cncc(-c2cc3c(-c4nc(N[C@H]5CCCNCC5)c5c(C6CC6)cncc5n4)ccnc3[nH]2)c1` [Example 369, (S)-Azepan-4-yl-[5-cyclopropyl-2-(2-pyridin-3-yl-1H-pyrrolo[2,3-b]pyridin-4-yl)-pyrido[3,4-d]pyrimidin-4-yl]-amine], the IC50 is less than 100 nM. The value for `CC1(C)CNCC[C@@H]1Nc1nc(-c2ccnc3[nH]c(-c4cncc(F)c4)cc23)nc2cncc(C3CCC3)c12` [Example 370, {5-Cyclobutyl-2-[2-(5-fluoro-pyridin-3-yl)-1H-pyrrolo[2,3-b]pyridin-4-yl]-pyrido[3,4-d]pyrimidin-4-yl}-((S)-3,3-dimethyl-piperidin-4-yl)-amine] was less than 100 nM. Under `CC1(C)CNCC[C@@H]1Nc1nc(-c2ccnc3[nH]c(-c4ccncc4)cc23)nc2cncc(C3CC3)c12` [Example 371, 5-Cyclopropyl-N-[(4S)-3,3-dimethyl-4-piperidyl]-2-[2-(4-pyridyl)-1H-pyrrolo[2,3-b]pyridin-4-yl]pyrido[3,4-d]pyrimidin-4-amine] stands less than 100 nM.

Regarding `CC1(C)CNCC[C@@H]1Nc1nc(-c2ccnc3[nH]c(-c4cccnc4)cc23)nc2cncc(C(F)(F)F)c12` [Example 372, N-[(4S)-3,3-dimethyl-4-piperidyl]-2-[2-(3-pyridyl)-1H-pyrrolo[2,3-b]pyridin-4-yl]-5-(trifluoromethyl) pyrido[3,4-d]pyrimidin-4-amine], the IC50 is less than 100 nM. Under `c1ccc2c(c1)oc1nccc(-c3nc(N4CCNCC4)c4c(C5CC5)cncc4n3)c12` [Example 373, 4-(5-Cyclopropyl-4-piperazin-1-yl-pyrido[3,4-d]pyrimidin-2-yl)-benzofuro[2,3-b]pyridine] stands 1000 to 10000 nM; under `c1ccc2c(c1)oc1nccc(-c3nc(NC4CCNCC4)c4c(C5CC5)cncc4n3)c12` [Example 374, 2-(benzofuro[2,3-b]pyridin-4-yl)-5-cyclopropyl-N-(4-piperidyl)pyrido[3,4-d]pyrimidin-4-amine], 1000 to 10000 nM; under `CN(c1nc(-c2ccnc3[nH]c4ccccc4c23)nc2cncc(C3CCC3)c12)C1CC2NC(=O)OC2C1` (stereo not shown) [Example 375, 5-{[5-Cyclobutyl-2-(9H-pyrido[2,3-b]indol-4-yl)-pyrido[3,4-d]pyrimidin-4-yl]-methyl-amino}-hexahydro-cyclopentoxazol-2-one], 100 to 1000 nM. With `O=C1NC2CC(Nc3nc(-c4ccnc5[nH]c6ccccc6c45)nc4cncc(C5CCC5)c34)CC2O1` (stereo not shown) [Example 376, 5-[5-Cyclobutyl-2-(9H-pyrido[2,3-b]indol-4-yl)-pyrido[3,4-d]pyrimidin-4-ylamino]-hexahydro-cyclopentoxazol-2-one], the IC50 lay within 1000 to 10000 nM. The value for `NC(=O)C1CC(Nc2nc(-c3ccnc4[nH]c5ccccc5c34)nc3cncc(C4CCC4)c23)CC1N` (stereo not shown) [Example 377, 2-amino-4-[[5-cyclobutyl-2-(9H-pyrido[2,3-b]indol-4-yl)pyrido[3,4-d]pyrimidin-4-yl]amino]cyclopentane carboxamide] was 100 to 1000 nM. Consider `CC1(C)CNCC[C@@H]1Nc1nc(-c2ccnc(Nc3ccc4ccccc4n3)c2)nc2cncc(C3CC3)c12` [Example 378, {5-Cyclopropyl-2-[2-(quinolin-2-ylamino)-pyridin-4-yl]-pyrido[3,4-d]pyrimidin-4-yl}-((S)-3,3-dimethyl-piperidin-4-yl)-amine], for which the IC50 is less than 100 nM. Turning to `CC1(C)CNCC[C@H]1Nc1nc(-c2ccnc(Nc3cc4ccccn4n3)c2)nc2cncc(C3CCC3)c12` [Example 379, {5-Cyclobutyl-2-[2-(pyrazolo[1,5-a]pyridin-2-ylamino)-pyridin-4-yl]-pyrido[3,4-d]pyrimidin-4-yl}-((R)-3,3-dimethyl-piperidin-4-yl)-amine], the half-maximal inhibitory concentration (IC50) is less than 100 nM. Under `CC1(C)CNCC[C@@H]1Nc1nc(-c2ccnc(Nc3cc4ccccn4n3)c2)nc2cncc(C3CCC3)c12` [Example 380, {5-Cyclobutyl-2-[2-(pyrazolo[1,5-a]pyridin-2-ylamino)-pyridin-4-yl]-pyrido[3,4-d]pyrimidin-4-yl}-((S)-3,3-dimethyl-piperidin-4-yl)-amine] stands less than 100 nM.

Take `CC1(C)CNCC[C@@H]1Nc1nc(-c2ccnc(Nc3cc(F)ccn3)c2)nc2cncc(C3CCC3)c12` [Example 382, {5-Cyclobutyl-2-[2-(4-fluoro-pyridin-2-ylamino)-pyridin-4-yl]-pyrido[3,4-d]pyrimidin-4-yl}-((S)-3,3-dimethyl-piperidin-4-yl)-amine]: the IC50 was less than 100 nM. Under `COc1cccc(Nc2cc(-c3nc(N[C@H]4CCNCC4(C)C)c4c(C5CCC5)cncc4n3)ccn2)n1` [Example 383, {5-Cyclobutyl-2-[2-(6-methoxy-pyridin-2-ylamino)-pyridin-4-yl]-pyrido[3,4-d]pyrimidin-4-yl}-((S)-3,3-dimcthyl-piperidin-4-yl)-amine] stands less than 100 nM; under `CN(c1nc(-c2ccnc3[nH]c(-c4ncccc4F)cc23)nc2cncc(C3CC3)c12)[C@H]1CCNCC1(C)C` [Example 384, {5-Cyclopropyl-2-[2-(3-fluoro-pyridin-2-yl)-1H-pyrrolo[2,3-b]pyridin-4-yl]-pyrido[3,4-d]pyrimidin-4-yl}-((S)-3,3-dimethyl-piperidin-4-yl)-methyl-amine], less than 100 nM; under `CN(c1nc(-c2ccnc3[nH]c(-c4cccnc4)cc23)nc2cncc(C3CC3)c12)[C@H]1CCNCC1(C)C` [Example 385, [5-Cyclopropyl-2-(2-pyridin-3-yl-1H-pyrrolo[2,3-b]pyridin-4-yl)-pyrido[3,4-d]pyrimidin-4-yl]-((S)-3,3-dimethyl-piperidin-4-yl)-methyl-amine], less than 100 nM.

For `CC1(C)CNCC[C@@H]1Nc1nc(-c2ccnc(Nc3ccccn3)c2)nc2cncc(C3CCC3)c12` [Example 388, {5-Cyclobutyl-2-[2-(pyridin-2-ylamino)-pyridin-4-yl]-pyrido[3,4-d]pyrimidin-4-yl}-((S)-3,3-dimethyl-piperidin-4-yl)-amine], the 50% inhibitory concentration (IC50) is less than 100 nM. Turning to `CC1(C)CNCC[C@@H]1Nc1nc(-c2ccnc(Nc3ccc(F)cn3)c2)nc2cncc(C3CCC3)c12` [Example 389, {5-Cyclobutyl-2-[2-(5-fluoropyridin-2-ylamino)-pyridin-4-yl]-pyrido[3,4-d]pyrimidin-4-yl}-((S)-3,3-dimethyl-piperidin-4-yl)-amine], the IC50 is less than 100 nM. Under `CC1(C)CNCC[C@@H]1Nc1nc(-c2ccnc(Nc3ncccc3F)c2)nc2cncc(C3CC3)c12` [Example 390, {5-Cyclopropyl-2-[2-(3-fluoro-pyridin-2-ylamino)-pyridin-4-yl]-pyrido[3,4-d]pyrimidin-4-yl}-((S)-3,3-dimethyl-piperidin-4-yl)-amine] stands less than 100 nM.

`CC1(C)CNCC[C@@H]1Nc1nc(-c2ccnc(Nc3ncc(F)cc3F)c2)nc2cncc(C3CC3)c12` [Example 391, {5-Cyclopropyl-2-[2-(3,5-difluoro-pyridin-2-ylamino)-pyridin-4-yl]-pyrido[3,4-d]pyrimidin-4-yl}-((S)-3,3-dimethyl-piperidin-4-yl)-amine]: the half-inhibitory concentration (IC50) is less than 100 nM. `CC1(C)CNCC[C@@H]1Nc1nc(-c2ccnc(Nc3cc(F)ccn3)c2)nc2cncc(C3CC3)c12` [Example 392, {5-Cyclopropyl-2-[2-(4-fluoro-pyridin-2-ylamino)-pyridin-4-yl]-pyrido[3,4-d]pyrimidin-4-yl}-((S)-3,3-dimethyl-piperidin-4-yl)-amine]: the half-inhibitory concentration (IC50) was less than 100 nM.
